Experimental data as given in paper PMC9981942, “Pharmacokinetics and tissue distribution of Ramulus Mori (Sangzhi) alkaloids in rats and its effects on liver enzyme activity” (Frontiers in Pharmacology, 2023).
Where two headings read alike, the source gives them in different places.

Legend:
[1] = Tissue distribution after single oral SZ-A (40 mg/kg) in SD rats, plasma and 12 tissues; format: in vivo; conditions: for accumulation in tissues: up to 12 h
Experimental: Twenty SD rats were randomly classified into four groups corresponding to four-time points (5 and 30 min, 4 and 12 h) (n = 20; 5 animals per time point) that received SZ-A solution (40 mg/kg) via oral administration. After the completion of dose administration, plasma and tissue samples (derived from the heart, liver, spleen, lung, kidney, aortic blood vessels, brown adipose tissue, subcutaneous adipose tissue, abdominal adipose tissue, muscle (thigh skeletal muscle), pancreas, and brain) were collected at predetermined time points. Twenty-eight ICR mice were randomly classified into four groups (n = 7 per group) corresponding to four-time points (5 and 30 min, 4 and 12 h) that received SZ-A solution (20 mg/kg) via oral administration. After the completion of dose administration, tissue samples (derived from the heart, liver, spleen, lung, kidney, aortic blood vessels, brown adipose tissue, abdominal adipose tissue, muscle (thigh skeletal muscle), pancreas, and brain) were collected at predetermined time points.
Collected tissue samples were washed with normal saline. The surface moisture was removed by blotting gently with filter paper, and the weight was recorded. After adding an appropriate amount of normal saline, these tissue samples were ground into homogenates using a cryogenic grinder (JX-CL, Shanghai Jingxin, Shanghai, China). The obtained homogenates were stored at −80°C until LC-MS/MS analysis.
Primary pharmacokinetic parameters, including Cmax, Tmax, area under the plasma concentration-time curve (AUC), t1/2, clearance rate, and the apparent volume of distribution, were calculated using DAS 3.2.8 (Bio Guider Co., Shanghai, China).

[2] = design: method as in Mackay et al., 2003; conditions: rats; ref Mackay et al., 2003; cited from earlier work
[3] = design: method as in Nakagawa et al., 2007; conditions: rats, after oral gavage of DNJ; ref Nakagawa et al., 2007; cited from earlier work
[4] = Sprague-Dawley, rat, Brown adipose tissue, n=5
[5] = Sprague-Dawley, rat, Brown adipose tissue, n=5, read-out: AUC(0-t)
[6] = Sprague-Dawley, rat, Brown adipose tissue, n=5, read-out: Tmax
[7] = Sprague-Dawley, rat, Kidney, n=5
[8] = Sprague-Dawley, rat, Kidney, n=5, read-out: AUC(0-t)
[9] = Sprague-Dawley, rat, Kidney, n=5, read-out: Tmax
[10] = Sprague-Dawley, rat, Liver, n=5
[11] = Sprague-Dawley, rat, Liver, n=5, read-out: AUC(0-t)
[12] = Sprague-Dawley, rat, Liver, n=5, read-out: Tmax
[13] = Sprague-Dawley, rat, Lung, n=5, read-out: Tmax
[14] = Sprague-Dawley, rat, Pancreas, n=5
[15] = Sprague-Dawley, rat, Pancreas, n=5, read-out: AUC(0-t)
[16] = Sprague-Dawley, rat, Pancreas, n=5, read-out: Tmax
[17] = Sprague-Dawley, rat, Plasma, n=5
[18] = Sprague-Dawley, rat, Plasma, n=5, read-out: AUC(0-t)
[19] = Sprague-Dawley, rat, Plasma, n=5, read-out: Tmax
[20] = Sprague-Dawley, rat, muscle (thigh skeletal muscle), Muscle, n=5
[21] = Sprague-Dawley, rat, muscle (thigh skeletal muscle), Muscle, n=5, read-out: AUC(0-t)
[22] = Sprague-Dawley, rat, muscle (thigh skeletal muscle), Muscle, n=5, read-out: Tmax
[23] = rat, Abdominal adipose tissue, n=5
[24] = rat, Abdominal adipose tissue, n=5, read-out: AUC(0-t)
[25] = rat, Abdominal adipose tissue, n=5, read-out: Tmax
[26] = rat, Aortic blood vessels, n=5, read-out: Tmax
[27] = rat, Heart, n=5, read-out: AUC(0-t)
[28] = rat, Heart, n=5, read-out: Tmax
[29] = rat, Lung, n=5, read-out: AUC(0-t)
[30] = rat, Spleen, n=5, read-out: AUC(0-t)
[31] = rat, Spleen, n=5, read-out: Tmax
[32] = rat, Subcutaneous adipose tissue, n=5
[33] = rat, Subcutaneous adipose tissue, n=5, read-out: AUC(0-t)
[34] = rat, Subcutaneous adipose tissue, n=5, read-out: Tmax
[35] = rat, other tissues (not named), tissues not named separately for that alkaloid, read-out: time of peak concentration in other tissues (converted)

In the case of OC[C@H]1NC[C@@H](O)[C@@H]1O [DAB, 1,4-dideoxy-1,4-imino-D-arabinitol], the “time of distribution peak in the aortic vessel” value [1] is reported as at most 5 min, the “tissues with the highest concentrations” value [1] is reported as “kidney, followed by the liver, aortic vessels, and brown adipose tissue” and the “AUC(0-t)” value ([1]; Aortic blood vessels, n=5) is reported as 962 ± 354 ng·h/mL. The CLz ([1]; Plasma, n=5) was 32.5 ± 4.33 mL/min/kg, the Vz ([1]; Plasma, n=5) was 1.61 ± 0.24 L/kg and the half-life [1, 4] was 40.8 ± 0.6 min. The AUC(0-t) [1, 5] was 716 ± 259 ng·h/mL, the Tmax [1, 6] was 30 min and the Cmax [1, 7] was 13300 ± 2890 ng/mL. For the same compound, the half-life [1, 7] was 165 ± 30.6 min, the AUC(0-t) [1, 8] was 37800 ± 7170 ng·h/mL and the Tmax [1, 9] was 30 min. The Cmax [1, 10] was 2070 ± 396 ng/mL, the half-life [1, 10] was 229 ± 44.4 min and the AUC(0-t) [1, 11] was 8120 ± 2150 ng·h/mL. It also gave a Tmax [1, 12] of 30 min, a Cmax ([1]; Sprague-Dawley, rat, Lung, n=5) of 200 ± 22.3 ng/mL and a half-life ([1]; Sprague-Dawley, rat, Lung, n=5) of 31.8 ± 16.2 min. It also gave a Tmax [1, 13] of 13.2 ± 14.4 min, a Cmax [1, 14] of 122 ± 16.9 ng/mL and a half-life [1, 14] of 40.2 ± 2.4 min. For the same compound, the AUC(0-t) [1, 15] was 854 ± 90 ng·h/mL, the Tmax [1, 16] was 114 ± 115 min and the Cmax [1, 17] was 973 ± 215 ng/mL. For the same compound, the half-life [1, 17] was 34.2 ± 1.2 min, the AUC(0-t) [1, 18] was 2360 ± 349 ng·h/mL and the Tmax [1, 19] was 30 min. It also gave a Cmax [1, 20] of 188 ± 38.4 ng/mL, a half-life [1, 20] of 929 ± 700 min and an AUC(0-t) [1, 21] of 1550 ± 212 ng·h/mL. The Tmax [1, 22] was 67.2 ± 97.2 min, the Cmax [1, 23] was 212 ± 58.2 ng/mL and the half-life [1, 23] was 43.8 ± 3.6 min. The AUC(0-t) [1, 24] was 460 ± 146 ng·h/mL, the Tmax [1, 25] was 25.2 ± 11.4 min and the Cmax ([1]; rat, Aortic blood vessels, n=5) was 756 ± 536 ng/mL. The half-life ([1]; rat, Aortic blood vessels, n=5) was 27.6 ± 14.4 min, the Tmax [1, 26] was 4.8 min and the Cmax ([1]; rat, Brown adipose tissue, n=5) was 269 ± 82.8 ng/mL. The Cmax ([1]; rat, Heart, n=5) was 114 ± 24.2 ng/mL, the half-life ([1]; rat, Heart, n=5) was 42.6 ± 0.6 min and the AUC(0-t) [1, 27] was 469 ± 213 ng·h/mL. It also gave a Tmax [1, 28] of 72 ± 94.2 min, an AUC(0-t) [1, 29] of 333 ± 108 ng·h/mL and a Cmax ([1]; rat, Spleen, n=5) of 144 ± 39.9 ng/mL. The half-life ([1]; rat, Spleen, n=5) was 45 ± 4.2 min, the AUC(0-t) [1, 30] was 294 ± 87 ng·h/mL and the Tmax [1, 31] was 30 min. The Cmax [1, 32] was 112 ± 41.5 ng/mL, the half-life [1, 32] was 44.4 ± 1.8 min and the AUC(0-t) [1, 33] was 232 ± 75 ng·h/mL. For the same compound, the Tmax [1, 34] was 30 min, the Tmax [1, 35] was 30 min and the accumulation in tissues [1] was “no long-term accumulation”. For the same compound, the form excreted [2] was “mainly excreted unchanged”.

For OC[C@H]1NC[C@H](O)[C@@H](O)[C@@H]1O [DNJ, 1-deoxynojirimycin], the “peak time in the brain” value [1] was 4 h, the “tissues with the highest concentrations” value [1] was “kidney, followed by the liver, aortic vessels, and brown adipose tissue” and the CLz ([1]; Plasma, n=5) was 35.7 ± 5.17 mL/min/kg. It also gave a Vz ([1]; Plasma, n=5) of 1.59 ± 0.29 L/kg, a half-life [1, 4] of 26.4 ± 13.2 min and an AUC(0-t) [1, 5] of 3750 ± 995 ng·h/mL. It also gave a Tmax [1, 6] of 30 min, a Cmax [1, 7] of 68200 ± 12400 ng/mL and a half-life [1, 7] of 148 ± 30.6 min. For the same compound, the AUC(0-t) [1, 8] was 174000 ± 37100 ng·h/mL, the Tmax [1, 9] was 30 min and the Cmax [1, 10] was 3300 ± 893 ng/mL. The half-life [1, 10] was 33 ± 0.6 min, the AUC(0-t) [1, 11] was 7560 ± 1840 ng·h/mL and the Tmax [1, 12] was 25.2 ± 11.4 min. For the same compound, the Cmax ([1]; Sprague-Dawley, rat, Lung, n=5) was 806 ± 23.5 ng/mL, the half-life ([1]; Sprague-Dawley, rat, Lung, n=5) was 28.2 ± 14.4 min and the Tmax [1, 13] was 13.2 ± 14.4 min. The Cmax [1, 14] was 386 ± 124 ng/mL, the half-life [1, 14] was 130 ± 205 min and the AUC(0-t) [1, 15] was 2190 ± 614 ng·h/mL. It also gave a Tmax [1, 16] of 30 min, a Cmax [1, 17] of 5830 ± 843 ng/mL and a half-life [1, 17] of 31.2 ± 1.2 min. For the same compound, the AUC(0-t) [1, 18] was 13700 ± 1970 ng·h/mL, the Tmax [1, 19] was 30 min and the Cmax [1, 20] was 725 ± 279 ng/mL. It also gave a half-life [1, 20] of 45.6 ± 18 min, an AUC(0-t) [1, 21] of 2640 ± 544 ng·h/mL and a Tmax [1, 22] of 19.8 ± 13.8 min. The Cmax [1, 23] was 1270 ± 428 ng/mL, the half-life [1, 23] was 102 ± 135 min and the AUC(0-t) [1, 24] was 3730 ± 1010 ng·h/mL. For the same compound, the Tmax [1, 25] was 25.2 ± 11.4 min, the Cmax ([1]; rat, Aortic blood vessels, n=5) was 4360 ± 2870 ng/mL and the half-life ([1]; rat, Aortic blood vessels, n=5) was 36 ± 6.6 min. For the same compound, the AUC(0-t) ([1]; rat, Aortic blood vessels, n=5, read-out: AUC(0-t)) was 6230 ± 1790 ng·h/mL, the Tmax [1, 26] was 4.8 min and the Cmax ([1]; rat, Brain, n=5) was 242 ± 50.3 ng/mL. It also gave a half-life ([1]; rat, Brain, n=5) of 482 ± 430 min, an AUC(0-t) ([1]; rat, Brain, n=5, read-out: AUC(0-t)) of 2060 ± 562 ng·h/mL and a Tmax ([1]; rat, Brain, n=5, read-out: Tmax) of 151 ± 122 min. The Cmax ([1]; rat, Brown adipose tissue, n=5) was 1420 ± 513 ng/mL, the Cmax ([1]; rat, Heart, n=5) was 588 ± 140 ng/mL and the half-life ([1]; rat, Heart, n=5) was 31.8 ± 11.4 min. For the same compound, the AUC(0-t) [1, 27] was 1340 ± 373 ng·h/mL, the Tmax [1, 28] was 10.2 ± 11.4 min and the AUC(0-t) [1, 29] was 1220 ± 501 ng·h/mL. The Cmax ([1]; rat, Spleen, n=5) was 660 ± 225 ng/mL, the half-life ([1]; rat, Spleen, n=5) was 37.2 ± 1.8 min and the AUC(0-t) [1, 30] was 1880 ± 845 ng·h/mL. It also gave a Tmax [1, 31] of 30 min, a Cmax [1, 32] of 577 ± 163 ng/mL and a half-life [1, 32] of 37.8 min. It also gave an AUC(0-t) [1, 33] of 1210 ± 304 ng·h/mL, a Tmax [1, 34] of 30 min and a Tmax ([1]; rat, heart, aortic vessels, read-out: time of peak concentration in heart and aortic vessels (converted)) of 5 min. The Tmax [1, 35] was 30 min, the accumulation in tissues [1] was “no long-term accumulation” and the “DNJ metabolites in plasma” value [3] was “did not detect any DNJ metabolites”.
